Experimental data reported in US11752132B2, “Materials and methods for improving gastrointestinal function” (University of Florida Research Foundation, Incorporated, priority 2010, dated 2023).
Several values for one entry are separate records, joined by “and”; a condition that tells them apart may be missing. Equal entries are not always repeated. Entries after “also recorded” stand apart in the source; their conditions may differ. Where two headings read alike, the source gives them in different places.

Columns and labels:
small intestine mucosa = conditions: mouse, in vivo
Method: Following each injection, transepithelial ISC, an indicator of net anion secretion, is measured using an Ussing chamber, at time points as indicated in FIG. 20. For each measurement, a minimum of 32 tissues is examined.

[1] = system: jejunal mucosa (net anion secretion); assay: Ussing chamber transepithelial short circuit current (Isc) with transport blockers/forskolin; assay type: cell-based, mice; conditions: 10 μM bumetanide
[2] = system: jejunal mucosa (net anion secretion); assay: as above; assay type: cell-based, mice; conditions: for basal Isc after bumetanide: 100 μM bumetanide in bath solution
Excerpt: To study active HCO3^− secretion, 8-week-old, non-irradiated and irradiated, male BALB/c mice were obtained from the National Cancer Institute. Mice were randomly divided into groups, and abdomens were irradiated according to the gastrointestinal acute radiation syndrome (GI ARS) model with a Shepherd Mark-I, using a ^137Cs source delivering γ-irradiation at 1.84 Gy/min. Radiation was given as a single fraction. The GI ARS model will achieve maximum radiation damage to intestinal tissues, and mimics intestinal injury during radiation therapy of pelvic or abdominal tumors.
Changes in short circuit current (Isc), both as a function of time following radiation and with increasing doses of radiation, were examined to determine the earliest time and the minimum radiation dose required to produce significant changes in Isc. These studies were approved by the University of Rochester Animal Care and Use Committee.
Following exsanguinations, jejunal segment was obtained by excluding the distal 12 cm of small intestine adjacent to the caecum. This segment was washed and flushed in ice-cold Ringer's solution before the mucosa was stripped from the underlying muscular layers (Zhang, Ameen et al. 2007). The mucosa was mounted between the 2 halves of an Ussing-type Lucite chamber with an area of 0.30 cm^2 (P2304, Physiologic instruments, San Diego, Calif. 92128 USA), and electrical parameters were recorded using a voltage/current clamp device (VCC MC-8, Physiologic instruments, San Diego, Calif. 92128 USA) (Vidyasagar et al. 2005; Vidyasagar et al. 2004; Zhang et al. 2007; Vidyasagar and Ramakrishna 2002).
To determine the contribution of NKCC1 to basal Isc, 100 μM bumetanide (Sigma-Aldrich Co., USA) was added to the bath solution.
To determine whether the bumetanide-insensitive portion of Isc occurs via an apical membrane anion channel, a non-specific anion channel blocker, 5-nitro-2-(3-phenylpropylamino)-benzoic acid (Sigma-Aldrich Co., USA) (10 μM NPPB), and a specific cystic fibrosis transmembrane conductance regulator (CFTR) blocker (100 μM glibenclamide, Sigma-Aldrich Co., USA) were applied.

[3] = system: jejunum (HCO3^− secretion); assay: pH stat measurement of HCO3^− secretion in stripped jejunal sheets; assay type: cell-based, mice; conditions: for forskolin-stimulated HCO3^− secretion after blocker: blocker on luminal side (100 μM glibenclamide; NPPB)
Method: A Bi-burette TIM 856 (Radiometer Analytical SAS, Villeurbanne, France) was used to measure HCO3^− secretion in stripped jejunal sheets (Vidyasagar et al. 2005; Vidyasagar et al. 2004; Zhang et al. 2007). Automated pumps maintained a constant pH for luminal solution through the addition of 0.01 μl of 0.025 M sulfuric acid (H2SO4). Standard-to-stat pH calibration was established by adding a known quantity of H2SO4 to a weak buffering solution, which contains an increasing concentration of HCO3^− to produce a linear titration curve.
Jejunal tissues were exposed to a buffered solution on the bath side (serosal side), while the luminal side was exposed to an HCO3^− free, low-buffered solution (0.1-mM HEPES (4-(2-hydroxyethyl)-1-piperazineethanesulfonic acid) buffer, pH 7.4). The HCO3^− secretion was equivalent to the amount of acid added to the luminal solution to maintain the pH at 7.4 (or the stat pH). All experiments were performed under voltage-clamp conditions. HCO3^−-free solution was gassed with 100% O2 and HCO3^−-containing solution was gassed with 95% O2 and 5% CO2. The HCO3^− secretion was expressed as μeq h^−1·cm^−2 (Vidyasagar et al. 2005; Vidyasagar et al. 2004; Zhang et al. 2007).
After the tissue was mounted, HCO3^− secretions were initially present in the absence of bath HCO3^−, but rapidly fell towards 0 within 20-30 minutes. If bath HCO3^− was not present during the titration, the HCO3^− secretion remained close to 0. […] When inhibitors were added to the mucosal solution, the pH was adjusted and allowed to equilibrate for 30 minutes, until a steady rate of HCO3^− secretion was observed. When the inhibitor was added to the bath side, the tissue was also equilibrated for 30 minutes to achieve a steady rate of HCO3^− secretion (see Table 3).
All experiments were performed during the initial 1-hour steady-state period. 1 tissue from each animal was used for each experiment; only 1 experimental condition was studied with each tissue sample. All experiments were repeated for at least 4 times.

GI tract mucosa = conditions: animal studies; cited from earlier work
[4] = system: patients who have received pelvic radiation therapy; conditions: oral glutamine feeding; patients after pelvic radiation therapy; cited from earlier work
[5] = system: mice with injury to small intestine mucosa; assay: Oral administration of candidate nutrients in radiation, chemotherapy and Crohn's disease models
Method: In a Crohn's disease model, mice are injected with anti-CD3 mAb (acute inflammatory model to mimic conditions of Crohn's disease).
The alterations of absorptive capacity of nutrients are determined using disease models with injury to small intestine mucosa, i.e., the radiation model, chemotherapy model, and the Crohn's disease model. Specifically, a candidate nutrient is orally administered to control mice and mice that received irradiation, chemotherapy, and anti-CD3 mAb, respectively. In addition, compositions containing various combinations of the candidate nutrients are orally administered.
To determine the absorptive capacity of each nutrient, bioelectric measurements are performed using an Ussing chamber. The measurements include: a) the sodium coupled-amino acid current (ISC) and changes in conductance, b) changes in saturation kinetics of each nutrient and changes in the ISC following the administration of each nutrient; and c) the electrolyte absorption studies using isotope flux studies in the presence and absence of the specific candidate nutrient.

glutamine transporter = assay: Glutamine-stimulated Isc / saturation kinetics of glutamine transporter; assay type: cell-based, mice; conditions: increasing IR dose
IR mice = conditions: lysine 20 mg/mice/day orally for 5 days, thereafter every other day
Excerpt: Gavage was used during the experiment, and treatments were given on the first 5 days after irradiation and every other day until 10 days after irradiation.

lysine-transporter = assay: Lysine-stimulated Isc / lysine transport kinetics; assay type: cell-based, mice
[6] = clinical trials; cited from earlier work
[7] = oral administration, radiation, chemotherapy and Crohn's disease models
[8] = oral feeding of an irradiated subject

## O=c1[nH]cc(F)c(=O)[nH]1 [5-FU, 5-fluorouracil]
Small intestine mucosa
  net anion secretion (transepithelial ISC): significant increase in net anion secretion
  toxicity to small intestine: maximum toxicity to small intestine

## CCCCNc1cc(C(=O)O)cc(S(N)(=O)=O)c1Oc1ccccc1 [bumetanide]
[1]
  Isc associated with IR: abolished almost all of the Isc associated with IR
[2]; 0-Gy mice, 1.6±0.2 without
  basal Isc after bumetanide: 0.9±0.1 μeq·h^−1·cm^−2
[2]; 0 Gy
  forskolin-stimulated Isc after bumetanide: 1.3±0.2 μeq·h^−1·cm^−2
[2]; 3 Gy
  forskolin-stimulated Isc after bumetanide: 0.4±0.1 μeq·h^−1·cm^−2
[2]; bumetanide on bath side, Cl^−-free solution on both sides
  basal and forskolin-stimulated increase in Isc: did not inhibit basal and forskolin-stimulated increase in Isc
[2]; irradiated (3 Gy) tissues, 5.5±0.5 without
  basal Isc after bumetanide: 0.6±0.1 μeq·h^−1·cm^−2
[3]; 0 Gy + bumetanide, tissues treated with forskolin, Cl^−-free lumen solution
  HCO3^− secretion: 8.4 ± 0.4^ μeq·h^−1·cm^−2
[3]; 3 Gy + bumetanide, Cl^−-free lumen solution
  HCO3^− secretion: 0.8 ± 0.1^ns μeq·h^−1·cm^−2

## C=C[C@@]1(C)CC(=O)[C@]2(O)[C@@]3(C)[C@@H](O)CCC(C)(C)[C@@H]3[C@H](O)[C@H](OC(C)=O)[C@@]2(C)O1 [forskolin]
[2]; 0 Gy
  forskolin-stimulated Isc: 6.9±0.6 μeq·h^−1·cm^−2
  forskolin-stimulated Isc in Cl^−-free solution: 1.7±0.2 μeq·h^−1·cm^−2
[2]; 3-Gy irradiated mice
  forskolin-stimulated Isc in Cl^−-free solution: 0.3±0.1 μeq·h^−1·cm^−2
[2]; 3 Gy
  forskolin-stimulated Isc: 7.3±0.5 μeq·h^−1·cm^−2
[3]; 0 Gy + forskolin, Cl^− containing lumen solution
  HCO3^− secretion: 8.4±0.4 μeq·h^−1·cm^−2
[3]; 0 Gy + forskolin, Cl^−-free lumen solution
  HCO3^− secretion: 8.7±0.4 μeq·h^−1·cm^−2 and 8.7 ± 0.4^ μeq·h^−1·cm^−2
[3]; 3 Gy + forskolin, Cl^− containing lumen solution
  HCO3^− secretion: 0.6 ± 0.2 μeq·h^−1·cm^−2
[3]; 3 Gy + forskolin, Cl^− containing lumen solution, listed as Forskolin
  HCO3^− secretion: 0.6±0.2 μeq·h^−1·cm^−2
[3]; 3 Gy + forskolin, Cl^−-free lumen solution
  HCO3^− secretion: 0.9 ± 0.2^ μeq·h^−1·cm^−2
[3]; non-irradiated mice, bath Na^+ replaced with NMDG
  forskolin-stimulated HCO3^− secretion: 0.3±0.01 μeq·h^−1·cm^−2

## COc1ccc(Cl)cc1C(=O)NCCc1ccc(S(=O)(=O)NC(=O)NC2CCCCC2)cc1 [glibenclamide]
[2]; 0-Gy mice, 10 μM NPPB, 100 μM glibenclamide
  bumetanide-insensitive Isc after mucosal addition of blocker: 0.1±0.01 μeq·h^−1·cm^−2
[3]; 0 Gy + bumetanide, tissues treated with forskolin, 100 μM blocker in lumen solution
  HCO3^− secretion: 0.5 ± 0.1^ μeq·h^−1·cm^−2
[3]; 0 Gy + forskolin
  forskolin-stimulated HCO3^− secretion after blocker: 0.1 ± 0.1^ μeq·h^−1·cm^−2
[3]; 0 Gy + forskolin, listed as Glibenclamide
  forskolin-stimulated HCO3^− secretion after blocker: 0.1±0.1 μeq·h^−1·cm^−2
[3]; 0 Gy, blocker in lumen solution (100 μM DIDS or glibenclamide)
  HCO3^− secretion: 0.5 ± 0.1^ μeq·h^−1·cm^−2
[3]; 3 Gy + bumetanide, 100 μM blocker in lumen solution
  HCO3^− secretion: 0.2 ± 0.1^ns μeq·h^−1·cm^−2
[3]; 3 Gy, blocker in lumen solution / mucosal addition (100 μM DIDS or glibenclamide; NPPB)
  HCO3^− secretion: 0.11±0.1 μeq·h^−1·cm^−2 and 0.1 ± 0.1^ns μeq·h^−1·cm^−2

## NC(=O)CC[C@H](N)C(=O)O [glutamine]
GI tract mucosa
  protection of GI tract mucosa from injury caused by chemotherapy or radiation therapy: protects both upper and lower GI tract mucosa from injury
[4]
  prevention or alleviation of acute diarrhea: fail to show that oral glutamine feeding can prevent or alleviate acute diarrhea
[5]; [7]
  small intestine mucosa barrier: impairs small intestine mucosa barrier
  survival of mice: has adverse effects on survival of mice
[5]; [8]
  osmotic diarrhea: cause osmotic diarrhea
  survival: reduced survival
Glutamine transporter; FIG. 15
  Km of glutamine transporter (saturation kinetics): IR dose-dependent increase in Km
Glutamine transporter; FIG. 15 legend
  glutamine-stimulated Isc: dose-dependent increase in glutamine-stimulated Isc

## NCCCC[C@H](N)C(=O)O [lysine]
IR mice
  survival of IR mice with oral lysine: increased survival; also recorded: can increase survival in mice
IR mice; listed as Lysine
  survival of IR mice with oral lysine: increased survival
lysine-transporter
  Isc on addition of lysine to small intestine lumen side: causes an increase in Isc
lysine-transporter; 3 Gy IR tissues
  Km: 270 ± 10 µM
lysine-transporter; increasing IR dose, FIG. 16 legend
  lysine-stimulated Isc: dose-dependent decrease in lysine-stimulated Isc
lysine-transporter; tissues from non-IR mice
  Km: 1160 ± 40 µM
[5]; [8]
  survival: prolongs survival
[5]; radiation, chemotherapy and Crohn's disease models, each amino acid
  effect of oral administration on small intestine healing, paracellular conductance, electrolyte absorption, survival: improve small intestine healing, reduces paracellular conductance (thereby improving small intestine mucosal barrier mechanism), increases absorption of electrolytes, and/or improves survival in animals

## sucralfate
[6]
  reduction of acute GI symptoms (diarrhea prophylaxis): only a moderate reduction of acute GI symptoms was achieved
